Results reported in patent US20220127297A1, “Novel Antibacterial 3"-Derivatives Of 4,6-Disubstituted 2,5-Dideoxystreptamine Aminoglycoside Antibiotics” (AGILeBiotics B.V., priority 2018, published 2022).

Assays:
E. coli C1162 = assay: MIC determination at Uppsala University; assay type: cell-based; settings: Escherichia coli, APH(3′)-Ia
Text: (§1) 3.4.1 MIC Determination at Uppsala University (Sweden)
(§2) Tested reference compounds. Amikacin disulfate (Cat. No. A1774, Sigma Aldrich), Apramycin sulfate (Cat. No. A2024, Sigma Aldrich) and Gentamicin sulfate (Cat. No. G1914, Sigma Aldrich).
(§3) Bacterial strains/isolates. All assayed laboratory and clinical strains (P. aeruginosa PA01, A. baumanii ATCC 19606, A. baumanii 195N(a), A. baumanii 48F, E. coli C1162, E. coli C1181, M. morgannii S49 and P. stuartii B8-1) were from the IMI ND4BB ENABLE consortium strain collection. ATCC laboratory strains were acquired directly from the American Type Culture Collection. Clinical strains used were previously published (M Juhas, et al. J. Antimicrob. Chemother., 74 (4), 944-952 (2019); D. Hughes et al., Antimicrob. Agents Chemother., 47 (10), 3222-3232 (2003)) and were resistance genotyped within the ENABLE consortium.
(§4) Culture media and equipment. Water (Thermo Scientific, R05819); Mueller-Hinton II broth (BD Ref. 212322); sterile round-bottom 96-well plates (Thermo Scientific, 262162); Sensititre Nephelometer (ThermoFisher Scientific, V3011); 0.5 McFarland Standard (ThermoFisher Scientific, E1041); sterile polyester film (VWR, 391-1251).
(§5) Compound preparation. MIC assay procedure follows the CLSI M07 standard method (Clinical and Laboratory Standards Institute (CLSI); Methods for dilution antimicrobial susceptibility tests for bacteria that grow aerobically; approved standard—eleventh edition, M07-A10, Vol. 38, No. 2, 2018). Test compounds were received as solids and were dissolved in water to a concentration of 10 mg/mL of active compound. […] This solution was serially diluted in 2-fold steps in the first 10 columns of sterile round-bottom 96-well plates, while the final two columns were filled with Mueller-Hinton II broth without added compound for use as positive and negative growth controls.
(§6) Inoculum preparation. Inoculums were prepared by suspending several colonies freshly streaked culture of test strains in 5 mL of sterile 0.9% NaCl. The cell density of the inoculum solution was assessed and adjusted using a Sensititre Nephelometer and a 0.5 McFarland Standard. The inoculum was diluted 1:100 in Mueller-Hinton II broth and 50 μL of this inoculum solution was added to 50 μL of the test compound solutions yielding a concentration range of 64-0.125 μg/mL. The plates were sealed with sterile polyester film and stationarily incubated at 37° C. for 18 hours.
(§7) MIC determination. The MIC value was determined by visual inspection of bacterial growth within 96-well plates. The lowest concentration completely inhibiting growth was reported as the MIC for each strain and compound combination.

A. baumanii ATCC 19606 = assay: MIC determination at Uppsala University; assay type: cell-based; settings: Acinetobacter baumannii, ATCC19606, AMEs: WT
Text: as §1, §2, §3, §4, §5, §6, §7

A. baumanii 195N (a) = assay: MIC determination at Uppsala University; assay type: cell-based; settings: Acinetobacter baumannii, AAC(3)Ia, ANT(3″)Ia, APH(3″)Ib, APH(3′)VI, APH(6)Id
Text: as §1, §2, §3, §4, §5, §6, §7

E. coli C1181 = assay: MIC determination at Uppsala University; assay type: cell-based; settings: Escherichia coli, ANT(3″)-Ia, APH(3′)-Ia
Text: as §1, §2, §3, §4, §5, §6, §7

M. morgannii S49 = assay: MIC determination at Uppsala University; assay type: cell-based; settings: Morganella morganii, AAC(3)-IId, ANT(3″), APH(3″)-Ib, APH(3′)-Ia, APH(6)-Id
Text: as §1, §2, §3, §4, §5, §6, §7

P. aeruginosa PAO1 = assay: MIC determination at Uppsala University; assay type: cell-based; settings: Pseudomonas aeruginosa, AMEs: WT
Text: as §1, §2, §3, §4, §5, §6, §7

[1] = tested on: Klebsiella pneumoniae ATCC 43816; assay: Murine neutropenic thigh model of infection; assay type: in vivo, male CD-1 mice; settings: for Avg. Log CFU/g: thigh, 24 hours post infection; for Avg. Log CFU/g thigh: 24 h post infection; for survival rate: first study, vehicle group 50% mortality
Method: 4.1 Murine Neutropenic Thigh Model of Infection (Kiebsiella Pneumoniae ATCC 43816)
A comparator antibiotic (meropenem; Cat. No. 1392454, USP) was used during both studies.
During the first study ABX5006 and ABX5020 were tested at a dose of 64 mg/kg (group 5 for ABX5006, group 8 for ABX5020), 16 mg/kg (group 4 for ABX5006, group 7 for ABX5020) and of 4 mg/kg (group 3 for ABX5006, group 6 for ABX5020).
During a second study ABX5026 and ABX5039 were tested at a dose of 4 mg/kg (group 5 for ABX5026, group 8 for ABX5039), 1 mg/kg (group 4 for ABX5026, group 7 for ABX5039) and of 0.25 mg/kg (group 3 for ABX5026, group 6 for ABX5039).
Animals were dosed subcutaneously (10 mL/kg) twice with 8 h interval. […] A CFU count below limit of detection (LOD=1.0×10^2 CFU/mL) was substituted with the value 0 in order to perform statistical analysis.
Inoculum preparation for intramuscular infection. The strain was streaked out onto MH agar.

[2] = dose 0.25 mg/kg, SC, BID, Avg. Log CFU/g thigh vs vehicle
[3] = dose 1 mg/kg, SC, BID, Avg. Log CFU/g thigh vs vehicle
[4] = dose 4 mg/kg, SC, BID, Avg. Log CFU/g thigh vs vehicle
[5] = Log CFU/g thigh, dose 4 mg/kg SC BID
[6] = Log CFU/g thigh, dose 16 mg/kg SC BID
[7] = Log CFU/g thigh, dose 64 mg/kg SC BID

SMILES: N=C(NC[C@@H]1CCNC1)NC1[C@@H](O)C(OC2[C@@H](F)[C@H](O[C@H]3OC(CN)[C@@H](O)CC3N)C(N)C[C@H]2NC(=O)[C@@H](O)CCN)O[C@H](CO)[C@H]1O (stereo partly drawn) [ABX5039, Tobra-AHB-F-Gua (R) pyrrolidine-3-ylmethyl]
- MIC90 (E. coli C1162): 1 µg/mL
- MIC90 (A. baumanii ATCC 19606): 8 µg/mL
- MIC90 (A. baumanii 195N (a)): 4 µg/mL
- MIC90 (E. coli C1181): 0.5 µg/mL
- MIC90 (M. morgannii S49): 1 µg/mL
- MIC90 (P. aeruginosa PAO1): 1 µg/mL
- Change from vehicle group [1, 2]: 0.70
- Avg. Log CFU/g ([1]; dose 0.25 mg/kg, SC, BID): 9.08 Log CFU/g
- CFU count reduction in comparison to the vehicle control group ([1]; dose 1 mg/kg SC BID): > 4 log 10
- Change from vehicle group [1, 3]: 4.71
- Avg. Log CFU/g ([1]; dose 1 mg/kg, SC, BID): 5.07 Log CFU/g
- Change from vehicle group [1, 4]: 7.55
- Avg. Log CFU/g ([1]; dose 4 mg/kg, SC, BID): 2.23 Log CFU/g

SMILES: N=C(NCCN)NC1C(O)[C@@H](CO)OC(OC2C(F)[C@H](O[C@H]3OC(CN)[C@@H](O)CC3N)C(N)C[C@H]2NC(=O)[C@@H](O)CCN)[C@@H]1O (some centres unmarked) [ABX5020, Tobra-AHB-F-Gua-2-amino-ethyl]
- Change from vehicle group [1, 5]: −8.04
- Change from vehicle group [1, 6]: −8.14
- Change from vehicle group [1, 7]: −9.32
- Avg. Log CFU/g thigh ([1]; dose 4 mg/kg SC BID): 1.47 Log CFU/g
- Avg. Log CFU/g thigh ([1]; dose 16 mg/kg SC BID): 1.37 Log CFU/g
- Avg. Log CFU/g thigh ([1]; dose 64 mg/kg SC BID): 0.19 Log CFU/g
- survival rate [1]: 100%

SMILES: N=C(NC[C@@H]1CCCN1)NC1[C@@H](O)C(OC2[C@@H](F)[C@H](O[C@H]3OC(CN)[C@@H](O)CC3N)C(N)C[C@H]2NC(=O)[C@@H](O)CCN)O[C@H](CO)[C@H]1O (stereo partly drawn) [ABX5026, Tobra-AHB-F-Gua (S) pyrrolidine-2-yl-methyl]
- MIC90 (E. coli C1162): 1 µg/mL
- MIC90 (A. baumanii ATCC 19606): 8 µg/mL
- MIC90 (A. baumanii 195N (a)): 8 µg/mL
- MIC90 (E. coli C1181): 0.5 µg/mL
- MIC90 (M. morgannii S49): 2 µg/mL
- MIC90 (P. aeruginosa PAO1): 1 µg/mL
- Change from vehicle group [1, 2]: 1.80
- Avg. Log CFU/g ([1]; dose 0.25 mg/kg, SC, BID): 7.98 Log CFU/g
- CFU count reduction in comparison to the vehicle control group ([1]; dose 1 mg/kg SC BID): > 6 log 10
- Change from vehicle group [1, 3]: 6.44
- Avg. Log CFU/g ([1]; dose 1 mg/kg, SC, BID): 3.34 Log CFU/g
- Change from vehicle group [1, 4]: 7.56
- Avg. Log CFU/g ([1]; dose 4 mg/kg, SC, BID): 2.22 Log CFU/g

SMILES: N=C(N)NC1C(O)[C@@H](CO)OC(OC2C(F)[C@H](O[C@H]3OC(CN)[C@@H](O)CC3N)C(N)C[C@H]2NC(=O)[C@@H](O)CCN)[C@@H]1O (some centres unmarked) [ABX5006, Tobra-AHB-F-Gua]
- MIC90 (E. coli C1162): 1 µg/mL
- MIC90 (A. baumanii ATCC 19606): 8 µg/mL
- MIC90 (A. baumanii 195N (a)): 4 µg/mL
- MIC90 (E. coli C1181): 1 µg/mL
- MIC90 (M. morgannii S49): 1 µg/mL
- MIC90 (P. aeruginosa PAO1): 1 µg/mL
- Change from vehicle group [1, 5]: −7.05
- Change from vehicle group [1, 6]: −8.36
- Change from vehicle group [1, 7]: −9.13
- CFU count reduction in comparison to the vehicle control group ([1]; dose 4 mg/kg SC BID): 7 log 10
- Avg. Log CFU/g thigh ([1]; dose 4 mg/kg SC BID): 2.47 Log CFU/g
- Avg. Log CFU/g thigh ([1]; dose 16 mg/kg SC BID): 1.15 Log CFU/g
- Avg. Log CFU/g thigh ([1]; dose 64 mg/kg SC BID): 0.38 Log CFU/g
- survival rate [1]: 100%

SMILES: NCC[C@H](O)C(=O)N[C@@H]1C[C@H](N)[C@@H](O[C@H]2O[C@H](CN)[C@@H](O)[C@H](O)[C@H]2O)[C@H](O)[C@H]1O[C@H]1O[C@H](CO)[C@@H](O)[C@H](N)[C@H]1O [Amikacin, amikacin, reference compound]
- MIC90 (E. coli C1162): 4 µg/mL
- MIC90 (A. baumanii ATCC 19606): 16 µg/mL
- MIC90 (A. baumanii 195N (a)): > 64 µg/mL
- MIC90 (E. coli C1181): 4 µg/mL
- MIC90 (M. morgannii S49): 4 µg/mL
- MIC90 (P. aeruginosa PAO1): 4 µg/mL
